A word on the inhibition: it is the percentage by which the read-out fell short of the control. Lower therefore signals little suppression. As usually defined, the IC50 is the concentration needed to halve the response being measured.

We go through 35 compounds from ChEMBL document CHEMBL4184115, “In vitro and in silico evaluations of diarylpentanoid series as α-glucosidase inhibitor” (Bioorg Med Chem Lett, 2018).

For test [1], the target named is T1, Alpha glucosidase (Homo sapiens, UniProt O43451+P10253+P14410+Q2M2H8). The test is described as follows: Inhibition of alpha-glucosidase (unknown origin) at 50 uM using 4-Nitrophenyl-alpha-D-glucopyranoside as substrate incubated foe 5 mins followed by substrate addition measured after 15 mins relative to control. It counts as protein assay.
In test [2] the target is T1, Alpha glucosidase. The test is described as follows: Inhibition of alpha-glucosidase (unknown origin) using 4-Nitrophenyl-alpha-D-glucopyranoside as substrate incubated foe 5 mins followed by substrate addition measured after 15 mins. Type of test: protein assay.

In test [1], `O=C(/C=C(O)/C=C/c1ccc(O)cc1)c1ccccc1O` showed an inhibition of 20.4%.

Compound `COc1ccc(/C=C2\CCC/C(=C\c3ccccc3)C2=O)cc1` returned an inhibition in test [1] of 31.4%.

In turn, `O=C(/C=C(O)/C=C/c1cccc(O)c1)c1ccccc1O` yielded an inhibition in test [1] of 40.4%.

Regarding `O=C(/C=C(O)/C=C/c1ccc(O)cc1)c1cc(Cl)ccc1O`, the inhibition in test [1] worked out at 45.3%.

`O=C(C1=C(O)/C(=C/c2ccc(O)cc2)CCC1)c1ccccc1` had an inhibition in test [1] of 34.9%.

In turn, `COc1cc(/C=C2\CCC/C(=C\c3ccccc3)C2=O)cc(OC)c1OC` came in with an inhibition in test [1] of 16.3%.

Take `O=C1/C(=C/c2ccccc2)CCC/C1=C\c1cccc(O)c1`: the IC50 in test [2] amounted to 28.4 µM. The compound further gave an inhibition in test [1] of 65.1%.

Regarding `O=C1/C(=C/c2ccccc2)CCC/C1=C\c1cccc(Br)c1`, the inhibition in test [1] stood at 27.2%.

In turn, `O=C(/C=C(O)/C=C/c1ccc(O)c(O)c1)c1cc(Cl)ccc1O` displayed an IC50 in test [2] of 15.1 µM. This compound also registered an inhibition in test [1] of 85.6%.

Turning to `O=C(/C=C(O)/C=C/c1ccc(O)cc1O)c1ccccc1O`, the IC50 in test [2] stood at 40.7 µM. In test [1], this compound returned an inhibition of 61.2%.

Consider `O=C(/C=C(O)/C=C/c1ccc(O)c(O)c1)c1ccccc1O`, for which, in test [2], the IC50 was found to be 14.3 µM. Also, the inhibition in test [1] was 93.6%.

In the case of `O=C1/C(=C/c2ccccc2)CCC/C1=C\c1ccc(F)c(F)c1`, in test [1], the inhibition was determined as 37.8%.

Turning to `O=C1/C(=C/c2ccccc2)CCC/C1=C\c1ccc(O)c(O)c1`, in test [2], the IC50 was determined as 20.3 µM. Moreover, the inhibition in test [1] was 90.7%.

The compound `O=C1/C(=C/c2ccccc2)CCC/C1=C\c1ccc(O)cc1` yielded an IC50 in test [2] of 42.3 µM. Besides, the inhibition in test [1] is 53%.

Take `O=C(C1=C(O)/C(=C/c2cccc(O)c2)CCC1)c1ccccc1`: the inhibition in test [1] is 43.2%.

`Cc1cccc(/C=C2\CCC/C(=C\c3ccccc3)C2=O)c1` came in with an inhibition in test [1] of 47.9%.

Turning to `O=C1/C(=C/c2ccccc2)CCC/C1=C\c1cccc(F)c1`, in test [1], the inhibition is 39.8%.

As for `O=C1/C(=C/c2ccccc2)CCC/C1=C\c1ccccc1F`, the inhibition in test [1] is 43%.

In the case of `O=C1/C(=C/c2ccccc2)CCC/C1=C\c1ccc(Cl)cc1`, in test [1], the inhibition was 27.6%.

In the case of `O=C(C1=C(O)/C(=C/c2ccc(O)c(O)c2)CCC1)c1ccccc1`, the IC50 in test [2] is 41 µM. Further, in test [1], the inhibition amounted to 55.9%.

The compound `O=C1/C(=C/c2ccccc2)CCC/C1=C\c1ccccc1Cl` had an inhibition in test [1] of 43%.

In test [1], `O=C1/C(=C/c2ccccc2)CCC/C1=C\c1ccccc1Br` showed an inhibition of 46.8%.

With `COc1ccc(/C=C2\CCC/C(=C\c3ccccc3)C2=O)c(OC)c1`, in test [1], the inhibition was determined as 41%.

For `Cc1ccc(/C=C2\CCC/C(=C\c3ccccc3)C2=O)cc1`, the inhibition in test [1] stood at 34.1%.

Take `COc1cccc(/C=C2\CCC/C(=C\c3ccccc3)C2=O)c1OC`: the inhibition in test [1] worked out at 31.8%.

In test [1], `O=C1/C(=C/c2ccccc2)CCC/C1=C\c1cccc(Cl)c1Cl` gave an inhibition of 44%.

Regarding `O=c1c(O)c(-c2ccc(O)c(O)c2)oc2cc(O)cc(O)c12` [QUERCETIN], the IC50 in test [2] amounted to 7.8 µM. The compound further returned an inhibition in test [1] of 83.6%.

In test [1], `O=C1/C(=C/c2ccccc2)CCC/C1=C\c1ccc(F)cc1` had an inhibition of 34%.

As to `COc1ccc(OC)c(/C=C2\CCC/C(=C\c3ccccc3)C2=O)c1`, the inhibition in test [1] amounted to 43.8%.

In turn, `O=C(/C=C(O)/C=C/c1cc(O)ccc1O)c1ccc(O)cc1O` yielded an IC50 in test [2] of 20 µM. In test [1], the inhibition came to 86.6%.

In turn, `O=C(/C=C(O)/C=C/c1ccco1)c1cc(O)ccc1O` yielded an IC50 in test [2] of 14.1 µM. Besides, the inhibition in test [1] is 98.4%.

Consider `O=C1/C(=C/c2ccccc2)CCC/C1=C\c1ccc(Br)cc1`, for which, in test [1], the inhibition was determined as 29.1%.

Regarding `O=C1/C(=C/c2ccccc2)CCC/C1=C\c1ccc(Cl)c(Cl)c1`, in test [1], the inhibition was found to be 48.4%.

`O=C(/C=C(O)/C=C/c1cccc(O)c1)c1cc(Cl)ccc1O` registered an IC50 in test [2] of 36.4 µM. In test [1], this compound had an inhibition of 62.4%.

`O=C(/C=C(O)/C=C/c1cc(O)ccc1O)c1cc(O)ccc1O` showed an IC50 in test [2] of 19.6 µM. In addition, the inhibition in test [1] was found to be 96.9%.
